The source of these data is US20230285310A1, “COMPOSITIONS FOR THE DELIVERY OF PAYLOAD MOLECULES TO AIRWAY EPITHELIUM” (ModernaTX, Inc., priority 2020, published 2023).

Structures can show the parent of a compound that is named as a salt.

For the first assay, the system named is HeLa cells. Briefly: Protein expression assay in HeLa cells (One-Glo luciferase, NPI-Luc mRNA). The settings on record: 5 h, no serum, 4 wells, sterol amine post-added to LNP core Compound 18, DSPC, Cholesterol plus DMG-PEG 2K (SA3, SA11, SA24, SA26, SA39, SA32), plus Compound 428 (SA4, SA6, SA10, SA16), or plus β-sitosterol and DMG-PEG 2K (SA23, SA29, SA30, SA31). In kind it is cell-based, human. On the procedure: To evaluate protein expression In Vitro, HeLa cells from ATCC.org (ATCC CCL-2) are used. The cells are cultured in complete Minimum Essential Medium (MEM) and are plated in 96 well Cell Carrier Ultra plate with PDL coated surface (PerkinElmer) prior to running an experiment.
LNPs encapsulating NPI-Luc mRNA were dosed with MEM media in the absence of serum. LNP transfected cell were incubated for 5 h post LNP transfection, the cells were imaged live using Opera Phoenix spinning disk confocal microscope (PerkinElmer). Cells were detected using DAPI (405 nm channel), and image analysis was performed in Harmony 4.9, to quantify the number of cells. After imaging the cells were processed with One-Glo Luciferase assay (Promega) to quantify protein expression. Results were reported in relative luminescence units (RLU) normalized to cells counts.
LNPs were prepared according to Example 2 using NPI-Luc as the mRNA construct. NPI-Luc is a dual read reporter made by adding a 5xV5 tag and a C-myc nuclear localization sequence at the N-terminus of Firefly Luciferase to enhance the signal to noise ratio. Protein expression can be detected using OneGLo assays with luminescence readout or by immunofluorescence with anti-V5 antibodies. Protein expression was evaluated according to the procedure outlined in Example 7. The LNPs are dosed in 4 wells and the average response was reported. For the HeLa assay the luminescence read (RLU) were normalized to cell counts.
On to `CC(C)CCC[C@@H](C)[C@H]1CC[C@H]2[C@@H]3CC=C4C[C@@H](OC(=O)NCCN(C)CCO)CC[C@]4(C)[C@H]3CC[C@]12C` [SA6, (3S,8S,9S,10R,13R,14S,17R)-10,13-dimethyl-17-((R)-6-methylheptan-2-yl)-2,3,4,7,8,9,10,11,12,13,14,15,16,17-tetradecahydro-1H-cyclopenta[a]phenanthren-3-yl (2-((2-hydroxyethyl)(methyl)amino)ethyl)carbamate], for which the “Average protein expression per cell (RLU per cell)” value (“Average protein expression per cell” below) stood at 196.2 RLU per cell.

On to `CC(C)CCC[C@@H](C)[C@H]1CC[C@H]2[C@@H]3CC=C4C[C@@H](OC(=O)CC5CN6CCC5CC6)CC[C@]4(C)[C@H]3CC[C@]12C` (stereo partly drawn) [SA32, (3S,8S,9S,10R,13R,14S,17R)-10,13-Dimethyl-17-((R)-6-methylheptan-2-yl)-2,3,4,7,8,9,10,11,12,13,14,15,16,17-tetradecahydro-1H-cyclopenta[a]phenanthren-3-yl 2-(quinuclidin-3-yl)acetate], for which the “Average protein expression per cell” value amounted to 301.8 RLU per cell. Still for that read-out and setting: then `CC(C)CCC[C@@H](C)[C@H]1CC[C@H]2[C@@H]3CC=C4C[C@@H](SSCCC(=O)N(CCCN)CCCCNCCCN)CC[C@]4(C)[C@H]3CC[C@]12C` [SA39, N-(3-Aminopropyl)-N-(4-((3-aminopropyl)amino)butyl)-3-(((3S,8S,9S,10R,13R,14S,17R)-10,13-dimethyl-17-((R)-6-methylheptan-2-yl)-2,3,4,7,8,9,10,11,12,13,14,15,16,17-tetradecahydro-1H-cyclopenta[a]phenanthren-3-yl)disulfaneyl)propanamide trihydrochloride], with 201.9 RLU per cell. On to `CC(C)CCC[C@@H](C)[C@H]1CC[C@H]2[C@@H]3CC=C4C[C@@H](OC(=O)NCCCNCCCCN)CC[C@]4(C)[C@H]3CC[C@]12C` [SA30, (3S,8S,9S,10R,13R,14S,17R)-10,13-Dimethyl-17-((R)-6-methylheptan-2-yl)-2,3,4,7,8,9,10,11,12,13,14,15,16,17-tetradecahydro-1H-cyclopenta[a]phenanthren-3-yl (3-((4-aminobutyl)amino)propyl)carbamate dihydrochloride], for which the “Average protein expression per cell” value is reported as 648.3 RLU per cell. Still for that read-out and setting: as for `CC[C@H](CC[C@@H](C)[C@H]1CC[C@H]2[C@@H]3CC=C4C[C@@H](OC(=O)NCCN(C)C)CC[C@]4(C)[C@H]3CC[C@]12C)C(C)C` [SA10, (3S,8S,9S,10R,13R,14S,17R)-17-((2R,5R)-5-Ethyl-6-methylheptan-2-yl)-10,13-dimethyl-2,3,4,7,8,9,10,11,12,13,14,15,16,17-tetradecahydro-1H-cyclopenta[a]phenanthren-3-yl (2-(dimethylamino)ethyl)carbamate], the figure is 236.6 RLU per cell; as for `CC(C)CCC[C@@H](C)[C@H]1CC[C@H]2[C@@H]3CC=C4C[C@@H](OC(=O)NCCNc5c(NCCCN(C)C)c(=O)c5=O)CC[C@]4(C)[C@H]3CC[C@]12C` [SA26, (3S,8S,9S,10R,13R,14S,17R)-10,13-dimethyl-17-((R)-6-methylheptan-2-yl)-2,3,4,7,8,9,10,11,12,13,14,15,16,17-tetradecahydro-1H-cyclopenta[a]phenanthren-3-yl (2-((2-((3-(dimethylamino)propyl)amino)-3,4-dioxocyclobut-1-en-1-yl)amino)ethyl)carbamate, hydrochloride salt], 84.3 RLU per cell; as for `CC(C)CCC[C@@H](C)[C@H]1CC[C@H]2[C@@H]3CC=C4C[C@@H](OC(=O)CCc5cnc[nH]5)CC[C@]4(C)[C@H]3CC[C@]12C` [SA11, (3S,8S,9S,10R,13R,14S,17R)-10,13-dimethyl-17-((R)-6-methylheptan-2-yl)-2,3,4,7,8,9,10,11,12,13,14,15,16,17-tetradecahydro-1H-cyclopenta[a]phenanthren-3-yl 3-(1H-imidazol-5-yl)propanoate, hydrochloride salt], 5.3 RLU per cell. On the same count and under the same terms, as for `CC(C)CCC[C@@H](C)[C@H]1CC[C@H]2[C@@H]3CC=C4C[C@@H](OC(=O)N(CCCN)CCCCN)CC[C@]4(C)[C@H]3CC[C@]12C` [SA29, (3S,8S,9S,10R,13R,14S,17R)-10,13-Dimethyl-17-((R)-6-methylheptan-2-yl)-2,3,4,7,8,9,10,11,12,13,14,15,16,17-tetradecahydro-1H-cyclopenta[a]phenanthren-3-yl (4-aminobutyl)(3-aminopropyl)carbamate dihydrochloride], the figure is 550.3 RLU per cell.

For the compound `CC(C)CCC[C@@H](C)[C@H]1CC[C@H]2[C@@H]3CC=C4C[C@@H](OC(=O)CCC(=O)N(CCCN(C)C)CCCN(C)C)CC[C@]4(C)[C@H]3CC[C@]12C` [SA24, (3S,8S,9S,10R,13R,14S,17R)-10,13-Dimethyl-17-((R)-6-methylheptan-2-yl)-2,3,4,7,8,9,10,11,12,13,14,15,16,17-tetradecahydro-1H-cyclopenta[a]phenanthren-3-yl 4-(bis(3-(dimethylamino)propyl)amino)-4-oxobutanoate dihydrochloride], the “Average protein expression per cell” value is listed as 457.2 RLU per cell. Still for that read-out and setting: as for `CC(C)CCC[C@@H](C)[C@H]1CC[C@H]2[C@@H]3CC=C4C[C@@H](OC(=O)CCC(=O)N(CCCN)CCCCN)CC[C@]4(C)[C@H]3CC[C@]12C` [SA31, (3S,8S,9S,10R,13R,14S,17R)-10,13-Dimethyl-17-((R)-6-methylheptan-2-yl)-2,3,4,7,8,9,10,11,12,13,14,15,16,17-tetradecahydro-1H-cyclopenta[a]phenanthren-3-yl 4-((4-aminobutyl)(3-aminopropyl)amino)-4-oxobutanoate dihydrochloride], the figure is 643.6 RLU per cell.

The next assay has as its system respiratory epithelium. Description: LNP protein expression in mouse after single dose of mRNA-LNP by intratracheal delivery (anti-V5 IHC). It is filed as in vivo. The settings on record: Mouse Bronchi (left lung); intratracheal instillation, ~0.7 mpk, NPI-Luc mRNA; core with β-sitosterol for SA23, SA31. On the procedure: Animals are anesthetized under isoflurane. The tongue is displaced and a small diameter cannula is inserted into the trachea (oropharyngeal route). The cannula tip is passed through the vocal chords, down the trachea so that the tip is very near, but not touching, the carina. Upon placement, 50 μL (mouse) or 200 μL (rat) of formulation is infused into the lungs. After 30 seconds upright, animals are released into a recovery cage and returned to their respective cages once recovered. Trachea, lungs and for the aerosol study nasal cavities, nasopharynx and larynx are collected for analysis. Lungs are inflated with 10% NBF fixative and trachea tied off to maintain inflation. Lungs are removed en bloc with attached trachea, bronchi and lobes. Whole lungs en bloc are fixed in 10% NBF at room temperature for at least 24 hours with a maximum of 48 hours and then removed from fixative and placed in PBS. Samples are immediately sent to be processed for paraffin 5-micron sections and H&E staining. IHC was performed on FFPE sections using the Leica Bond RX autostainer. […] Images were imaged at 20× magnification with the Panoramic 250 Flash III whole slide scanner. Image analysis was completed with Indica Labs HALO image analysis software. […] LNPs were prepared according to Example 2 using NPI-Luc as the mRNA construct. LNPs were delivered to mice by intratracheal instillation for a dose of ˜0.7 mpk. LNP protein expression in respiratory epithelium was evaluated according to sample collection and assay procedures A and B. The results are shown in Table 13a.
Regarding `CC(C)CCC[C@@H](C)[C@H]1CC[C@H]2[C@@H]3CC=C4C[C@@H](OC(=O)CCC(=O)N(CCCN)CCCCN)CC[C@]4(C)[C@H]3CC[C@]12C` [SA31, (3S,8S,9S,10R,13R,14S,17R)-10,13-Dimethyl-17-((R)-6-methylheptan-2-yl)-2,3,4,7,8,9,10,11,12,13,14,15,16,17-tetradecahydro-1H-cyclopenta[a]phenanthren-3-yl 4-((4-aminobutyl)(3-aminopropyl)amino)-4-oxobutanoate dihydrochloride], the “Average % V5 positive cells/total cells” value is 10.52%.

Staying with this assay, now noted: Mouse Trachea; intratracheal instillation, ~0.7 mpk, NPI-Luc mRNA; core with β-sitosterol for SA23, SA31.
In the case of `CC(C)CCC[C@@H](C)[C@H]1CC[C@H]2[C@@H]3CC=C4C[C@@H](OC(=O)CCC(=O)N(CCCN)CCCCN)CC[C@]4(C)[C@H]3CC[C@]12C` [SA31, (3S,8S,9S,10R,13R,14S,17R)-10,13-Dimethyl-17-((R)-6-methylheptan-2-yl)-2,3,4,7,8,9,10,11,12,13,14,15,16,17-tetradecahydro-1H-cyclopenta[a]phenanthren-3-yl 4-((4-aminobutyl)(3-aminopropyl)amino)-4-oxobutanoate dihydrochloride], the “Average % V5 positive cells/total cells” value is 27.07%.
